The structures appear in SMILES notation.

The assay has as its target T1, CmNAGase (Chitinolyticbacter meiyuanensis, UniProt A0A7D5C7R1).
T1 construct: full length, 836 residues (2508 bp), no signal peptide predicted, C-terminal His6-tag, pET-28a(+), E. coli BL21(DE3), 92 kDa; native peptides […], […], […]; catalytic D508, E509
As to the kind of experiment: pNP release at […] nm, Lineweaver-Burk. It counts as biochemical. The settings on record: 50 mM sodium citrate, pH 5.4, 40 °C, 50-1000 μM substrate.

T1 sequence (A0A7D5C7R1 entry or part of it): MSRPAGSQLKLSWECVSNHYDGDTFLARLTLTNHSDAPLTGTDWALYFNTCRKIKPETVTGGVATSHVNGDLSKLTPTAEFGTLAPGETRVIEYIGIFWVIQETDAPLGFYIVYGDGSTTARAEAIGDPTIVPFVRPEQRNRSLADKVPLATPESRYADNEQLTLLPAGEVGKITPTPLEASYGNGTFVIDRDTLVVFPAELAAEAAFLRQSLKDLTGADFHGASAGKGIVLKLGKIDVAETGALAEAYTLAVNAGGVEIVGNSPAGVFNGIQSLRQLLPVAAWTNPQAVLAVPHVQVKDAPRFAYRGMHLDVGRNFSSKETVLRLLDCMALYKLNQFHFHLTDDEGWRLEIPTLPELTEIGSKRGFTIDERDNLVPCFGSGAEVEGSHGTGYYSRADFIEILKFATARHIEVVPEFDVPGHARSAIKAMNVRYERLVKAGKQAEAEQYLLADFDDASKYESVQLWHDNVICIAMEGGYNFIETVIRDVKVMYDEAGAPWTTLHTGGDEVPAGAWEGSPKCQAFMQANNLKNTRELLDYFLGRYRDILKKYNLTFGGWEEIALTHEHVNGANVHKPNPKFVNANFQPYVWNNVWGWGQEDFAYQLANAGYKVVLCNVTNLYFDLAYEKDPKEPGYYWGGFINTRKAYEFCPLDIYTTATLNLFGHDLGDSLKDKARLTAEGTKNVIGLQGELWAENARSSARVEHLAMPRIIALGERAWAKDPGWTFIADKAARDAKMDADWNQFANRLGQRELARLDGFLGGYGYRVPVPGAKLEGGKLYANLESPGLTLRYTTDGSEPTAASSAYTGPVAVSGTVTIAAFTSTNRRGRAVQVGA

For the compound `CC(=O)N[C@H]1[C@H](Oc2ccc([N+](=O)[O-])cc2)O[C@H](CO)[C@@H](O)[C@@H]1O` [pNP-GlcNAc], the Michaelis constant (Km) stood at 0.5 µmol/mL.
